Entries after “also recorded” stand apart in the source; their conditions may differ. Bridge positions count the residues as written; N and C are the ends. Square brackets hold non-standard residues; d marks the D form. Peptide text beside a SMILES is read from it. hArg = N=C(N)NCCCC[C@H](N)C(=O)O; Ac5c = NC1(C(=O)O)CCCC1; Aib = CC(C)(N)C(=O)O
Legend:
PTH receptor 1 = target: T1, PTH receptor 1 (Mus musculus, UniProt P41593); experiment: MC3T3-E1 cAMP efficacy assay; type: cell-based, murine; details: MC3T3-E1 cells; for EC50: 100 μM IBMX, 37° C.; for Emax ± SEM [pmol/well]: maximally inducible cAMP
T1 construct: host or cells: MC3T3-E1 subclone 4
T1 sequence (P41593 27-591): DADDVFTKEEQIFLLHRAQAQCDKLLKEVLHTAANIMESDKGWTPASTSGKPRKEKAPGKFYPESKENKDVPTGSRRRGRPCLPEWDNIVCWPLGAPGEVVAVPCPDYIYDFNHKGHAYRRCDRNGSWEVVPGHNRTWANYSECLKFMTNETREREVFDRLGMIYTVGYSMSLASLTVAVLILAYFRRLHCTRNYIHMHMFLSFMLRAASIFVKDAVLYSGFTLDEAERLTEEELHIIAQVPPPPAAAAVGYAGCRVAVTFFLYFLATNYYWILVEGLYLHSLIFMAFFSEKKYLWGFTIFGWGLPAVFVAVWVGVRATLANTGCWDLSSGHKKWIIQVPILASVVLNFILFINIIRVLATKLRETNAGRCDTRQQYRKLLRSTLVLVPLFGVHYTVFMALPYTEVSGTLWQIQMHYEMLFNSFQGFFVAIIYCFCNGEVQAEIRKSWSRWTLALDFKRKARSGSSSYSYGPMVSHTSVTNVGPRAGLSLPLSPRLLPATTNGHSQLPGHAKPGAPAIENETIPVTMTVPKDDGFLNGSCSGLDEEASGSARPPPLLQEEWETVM
Experimental: MC3T3-E1 cells were seeded at 10,000 cells/well in 96-microtiter plates and grown overnight before the efficacy assays. On the day of analysis the growth medium was carefully removed by suction. Cells were washed once with 200 μl TB/0.1% […]. The buffer was replaced with 100 μl reaction mixture (±test peptide, +100 μM IBMX) and incubated at 37° C. for 13 min. The reaction was stopped by addition of 25 μl of ice-cold 0.5 M HCl. Cells were in the following incubated on ice for 60 min. 75 μl acetate-buffer were added to each well in a 96-well cAMP FlashPlate. […] FlashPlates were incubated overnight at 4° C., emptied by suction and counted in a TopCounter.
Determinations were performed in triplicates at all doses. Standards were included as single determinations, duplicates or triplicates in each experiment, preferentially on each plate.
Efficacy was evaluated in the concentration range from […].
Concentration-dependent cAMP responses were imported into GraphPad Prism vers. 4, transformed and plotted. Curves were fitted with a function for sigmoidal dose response curve non-linear fit Y=Bottom+(Top-Bottom)/(1+10̂((LogEC50-X))) where X is the logarithm of concentration and Y is the response. Y starts at Bottom and goes to Top with a sigmoid shape. pEC50 and the maximally inducible concentration of cAMP were evaluated. Overall statistical differences were analyzed using one-way ANOVA. Post-hoc comparisons were made by the use of Fisher's Least Significance Test. Results were considered significant, when p was lower than 0.05.

CYP2D6 = CYP2D6 (Homo sapiens, UniProt P10635); experiment: CYP2D6 inhibition in pooled human liver microsomes; type: in vitro ADME; set-up: Pooled human liver microsomes (HLM, final concentration 0.05 mg protein/mL); tissue BD Biosciences 452161; host or cells: pooled human liver microsomes; details: 10 μM compound, dextrorphan formation rate
Summary of the method: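 Pooled HLM (0.05 mg/mL) in 0.1 M KPi pH 7.4 with 5 μM dextromethorphan and 10 μM test compound, preincubated 5 min at 37 °C, then started with NADPH-regenerating system for 5 min. Dextrorphan quantified by LC/MS/MS; activity expressed as % of vehicle; <70% considered significant.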

Saos-2 PTH1R = target: T2, Saos-2 PTH1R (Homo sapiens, UniProt Q03431); experiment: cAMP-efficacy assay in Saos-2 cells; type: cell-based; details: for potency compared to linear / non-stabilized counterparts, in words / EC50: cAMP; for EC50: 100 μM IBMX, 37° C. 15 min, suffix of label = salt tested; for Emax ± SEM: relative effect to the control (SEQ ID NO: 32)
T2 construct: endogenous in cells; host or cells: Saos-2
T2 sequence (Q03431 27-593): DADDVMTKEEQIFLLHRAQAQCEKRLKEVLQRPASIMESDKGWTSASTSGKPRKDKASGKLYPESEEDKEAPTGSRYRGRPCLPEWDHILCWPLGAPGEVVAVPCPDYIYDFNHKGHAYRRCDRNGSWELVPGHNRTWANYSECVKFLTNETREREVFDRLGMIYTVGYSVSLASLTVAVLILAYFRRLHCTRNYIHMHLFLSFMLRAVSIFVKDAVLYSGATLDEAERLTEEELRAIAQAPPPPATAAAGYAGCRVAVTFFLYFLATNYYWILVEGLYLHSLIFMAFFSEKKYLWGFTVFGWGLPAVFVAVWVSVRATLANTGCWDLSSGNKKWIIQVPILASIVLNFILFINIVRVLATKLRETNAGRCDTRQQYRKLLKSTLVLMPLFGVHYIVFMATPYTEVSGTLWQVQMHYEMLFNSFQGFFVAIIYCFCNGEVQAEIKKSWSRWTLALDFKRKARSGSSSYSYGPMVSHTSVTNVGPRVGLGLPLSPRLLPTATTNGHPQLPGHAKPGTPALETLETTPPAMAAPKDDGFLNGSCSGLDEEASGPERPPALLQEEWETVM
Summary of the method: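 cAMP accumulation was assayed by FlashPlate after 15 min peptide stimulation at 37 °C of Saos-2 cells in Tyrode's buffer containing 100 μM IBMX and 0.1% BSA, with the reaction stopped by ice-cold HCl. Variable-slope logistic fitting gave EC50/pEC50, Hill coefficient and Emax, with single or triplicate points.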

ovariectomized rats = details: cited from earlier work; for bone-anabolic activity: ovariectomized rats
PTH1R = target: T3, PTH1R (Homo sapiens, UniProt Q03431); details: cited from earlier work
T3 sequence (Q03431 27-593): T2 sequence (Q03431 27-593)

CYP2D6, sequence (P10635 whole entry): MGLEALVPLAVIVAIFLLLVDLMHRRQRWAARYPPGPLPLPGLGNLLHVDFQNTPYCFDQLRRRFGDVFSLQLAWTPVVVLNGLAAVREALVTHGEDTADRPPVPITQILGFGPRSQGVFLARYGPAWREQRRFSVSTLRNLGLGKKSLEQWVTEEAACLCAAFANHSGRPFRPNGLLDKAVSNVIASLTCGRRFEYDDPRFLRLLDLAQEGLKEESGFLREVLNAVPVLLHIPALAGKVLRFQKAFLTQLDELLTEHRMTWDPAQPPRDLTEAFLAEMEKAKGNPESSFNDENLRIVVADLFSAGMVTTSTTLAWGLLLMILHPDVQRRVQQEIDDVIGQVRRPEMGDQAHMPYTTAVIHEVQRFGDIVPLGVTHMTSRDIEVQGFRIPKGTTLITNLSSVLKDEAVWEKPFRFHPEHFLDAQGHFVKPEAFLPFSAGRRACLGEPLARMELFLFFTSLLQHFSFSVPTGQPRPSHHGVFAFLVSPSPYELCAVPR

Molecule | EC50 (PTH receptor 1; cAMP) [nM] | Emax ± SEM [pmol/well] (PTH receptor 1) | CYP2D6 activity (% of vehicle) (CYP2D6) | EC50 (Saos-2 PTH1R) [nM] | Emax ± SEM (Saos-2 PTH1R) | also measured
CC[C@H](C)[C@H](NC(=O)[C@H](CCC(=O)O)NC(=O)C(C)(C)NC(=O)[C@@H](NC(=O)C1(N)CCCC1)C(C)C)C(=O)N[C@@H](CCC(N)=O)C(=O)N[C@@H](CC(C)C)C(=O)N[C@@H](CCSC)C(=O)N[C@@H](Cc1c[nH]cn1)C(=O)N[C@@H](CCC(N)=O)C(=O)N[C@@H](CCCCNC(=N)N)C(=O)N[C@@H](C)C(=O)N[C@H]1CCCCNC(=O)C[C@@H](C(N)=O)NC(=O)[C@H](CC(N)=O)NC(=O)[C@H](CC(C)C)NC(=O)[C@H](Cc2c[nH]c3ccccc23)NC1=O [SEQ ID NO: 2, H-Ac5c-Val-Aib-Glu-Ile-Gln-Leu-Met-His-Gln-Har-Ala-Lys( )Trp-Leu-Asn-Asp( )-NH2] (H-[Ac5c]V[Aib]EIQLMHQ[hArg]AKWLND-NH2; lactam 13-17) | 1 | 4.9 ± 0.8 | 67 % of vehicle |  |  | potency comparison in words (PTH receptor 1; cAMP): EC50 comparable to PTH(1-34); also recorded: significantly more potent than SEQ ID NO: 31, SEQ ID NO: 3 and SEQ ID NO: 42; potency compared to linear / non-stabilized counterparts, in words (Saos-2 PTH1R): significantly higher potency; potency compared to linear / non-stabilized counterparts, in words (Saos-2 PTH1R; listed as 2): increased potencies; potency compared to linear / non-stabilized counterparts, in words (Saos-2 PTH1R; listed as SEQ ID NO:2): significantly higher potency
CC[C@H](C)[C@H](NC(=O)[C@H](CCC(=O)O)NC(=O)C(C)(C)NC(=O)[C@@H](NC(=O)C1(N)CCCC1)C(C)C)C(=O)N[C@@H](CCC(N)=O)C(=O)N[C@@H](CC(C)C)C(=O)N[C@@H](CCSC)C(=O)N[C@@H](Cc1c[nH]cn1)C(=O)N[C@@H](CCC(N)=O)C(=O)N[C@@H](CCCCNC(=N)N)C(=O)N[C@@H](C)C(=O)N[C@@H](CCCCN)C(=O)N[C@@H](Cc1c[nH]c2ccccc12)C(=O)N[C@@H](CC(C)C)C(=O)N[C@@H](CC(N)=O)C(=O)N[C@@H](CC(N)=O)C(N)=O [SEQ ID NO: 3, H-Ac5c-Val-Aib-Glu-Ile-Gln-Leu-Met-His-Gln-Har-Ala-Lys-Trp-Leu-Asn-Asn-NH2] (H-[Ac5c]V[Aib]EIQLMHQ[hArg]AKWLNN-NH2) | 2.51 | 5.5 ± 0.9 | 21 % of vehicle | 9.12 | 1.06 ± 0.06 | 
CC[C@H](C)[C@H](NC(=O)[C@H](CCC(=O)O)NC(=O)C(C)(C)NC(=O)[C@@H](NC(=O)C1(N)CCCC1)C(C)C)C(=O)N[C@@H](CCC(N)=O)C(=O)N[C@@H](CC(C)C)C(=O)N[C@@H](CCSC)C(=O)N[C@@H](Cc1c[nH]cn1)C(=O)N[C@@H](CCC(N)=O)C(=O)N[C@@H](CCCCNC(=N)N)C(=O)N[C@@H](C)C(=O)N[C@H]1CCCCNC(=O)C[C@@H](C(N)=O)NC(=O)[C@H](CC(C)C)NC(=O)[C@H](Cc2c[nH]c3ccccc23)NC1=O [SEQ ID NO: 30, H-Ac5c-Val-Aib-Glu-Ile-Gln-Leu-Met-His-Gln-Har-Ala-Lys( )-Trp-Leu-Asp( )-NH2] (H-[Ac5c]V[Aib]EIQLMHQ[hArg]AKWLD-NH2; lactam 13-16) | 10 | 5.0 ± 0.2 | 83 % of vehicle | 81.3 | 1.04 ± 0.05 | 
CC[C@H](C)[C@H](NC(=O)[C@H](CCC(=O)O)NC(=O)C(C)(C)NC(=O)[C@@H](NC(=O)C1(N)CCCC1)C(C)C)C(=O)N[C@@H](CCC(N)=O)C(=O)N[C@@H](CC(C)C)C(=O)N[C@@H](CCSC)C(=O)N[C@@H](Cc1c[nH]cn1)C(=O)N[C@@H](CCC(N)=O)C(=O)N[C@@H](CCCCNC(=N)N)C(=O)N[C@@H](C)C(=O)N[C@@H](CCCCN)C(=O)N[C@@H](Cc1c[nH]c2ccccc12)C(N)=O [SEQ ID NO: 31, H-Ac5c-Val-Aib-Glu-Ile-Gln-Leu-Met-His-Gln-Har-Ala-Lys-Trp-NH2, reference compound] (H-[Ac5c]V[Aib]EIQLMHQ[hArg]AKW-NH2) | 3.98 | 4.5 ± 1.0 | 22 % of vehicle | 21.9 | 1.07 ± 0.04 | 
CC[C@H](C)[C@H](NC(=O)[C@H](CCC(=O)O)NC(=O)C(C)(C)NC(=O)[C@@H](NC(=O)C1(N)CCCC1)C(C)C)C(=O)N[C@@H](CCC(N)=O)C(=O)N[C@@H](CC(C)C)C(=O)N[C@@H](CCSC)C(=O)N[C@@H](Cc1c[nH]cn1)C(=O)N[C@@H](CCC(N)=O)C(=O)N[C@@H](CCCCNC(=N)N)C(=O)N[C@@H](C)C(=O)N[C@@H](CCCCN)C(=O)N[C@@H](Cc1c[nH]c2ccccc12)C(=O)N[C@@H](CC(C)C)C(=O)N[C@@H](CC(N)=O)C(=O)N[C@@H](CC(=O)O)C(N)=O [SEQ ID NO: 42, H-Ac5c-Val-Aib-Glu-Ile-Gln-Leu-Met-His-Gln-Har-Ala-Lys-Trp-Leu-Asn-Asp-NH2] (H-[Ac5c]V[Aib]EIQLMHQ[hArg]AKWLND-NH2) | 6.31 | 5.7 ± 1.0 |  | 20.9 | 1.03 ± 0.07 | CYP2D6 activity (% of vehicle) (CYP2D6; listed as 42): 29 % of vehicle; CYP2D6 activity (% of vehicle) (CYP2D6; listed as SEQ ID NO:42): 29 % of vehicle
PTH(1-29): truncated PTH fragment from the literature (Murrills et al. 2004) (SVSEIQLMHNLGKHLNSMERVEWLRKKLQ; Parathyroid hormone; UniProt P01270 32-60, looked up, fragment) |  |  |  |  |  | bone-anabolic activity, fold less potent than PTH(1-34) (ovariectomized rats; ovariectomized rat model): approximately 20 fold
[Aib^1.3, Phe^7, Nle^8, Arg^11, Ala^12, Trp^14]PTH(1-14) |  |  |  |  |  | activation of the PTH1R in vitro (PTH1R): activated the PTH1R in vitro; bone-anabolic activity (ovariectomized rats): did not exhibit any bone-anabolic activity
[Ala^1.3, Nle^8, Gln^10, Har^11, Trp^14, Arg^19, Tyr^21]rPTH(1-21) [MPTH(1-21)] |  |  |  |  |  | bone-anabolic activity (ovariectomized rats): inactive

— patent US20100048462A1, “TRUNCATED PTH PEPTIDES WITH A CYCLIC CONFORMATION” (Zealand Pharma A/S, priority 2006, published 2010)
